Measurements from paper PMC10707982, “Solubility and Thermodynamics Data of Cabozantinib Malate in Various Aqueous Solutions of Dimethyl Sulfoxide at Different Temperatures” (Molecules, 2023).

Assay: Shake flask solubility of CBZM in DMSO aqueous solutions and pure solvents
Format: physicochemical
Settings: for Experimental mole fraction solubility (xe): 101.1 kPa
Protocol: A digital analytical balance (Mettler Toledo, Greifensee, Switzerland) with a sensitivity of 0.10 mg was used to measure the mass of each cosolvent mixture. A series of DMSO aqueous solutions (m = 0.10–0.90), were investigated. Three replications of each cosolvent mixture were taken. CBZM’s solubility values in numerous DMSO aqueous solutions (m = 0.0–1.0) and pure solvents were determined utilizing a shake flask methodology at five distinct temperature and fixed atmospheric pressure. Essentially, extra CBZM crystals were mixed with known amounts of each cosolvent mixture and neat solvents in triplicates. All the mixtures were vortexed for about 5 min. To achieve equilibrium, the resulting mixes were transferred to a WiseBath WSB Shaking Water Bath (Model WSB-18/30/-45, Daihan Scientific Co. Ltd., Seoul, Republic of Korea) for 72 h at 100 rpm for continuous shaking. After the samples reached equilibrium, they were removed from the shaker and centrifuged at 5000 rpm for 30 min at 298.2 K. The uncertainty in water bath temperature was recorded as 0.15 K. The equilibrium time of 72 h was optimized by preliminary experiments. Under preliminary experiments, CBZM solubility was measured at 24, 48, […], 72, and 96 h. […] After the supernatants were separated and diluted with mobile phase (if needed), the CBZM content was evaluated at 244 nm using a previously described HPLC technique. By using their standard formulae found in the literature, CBZM xe values were obtained.

Experimental mole fraction solubility (xe) (DMSO mass fraction m = 0.0, T = 298.2 K): 2.24 × 10^−7 mole fraction
Experimental mole fraction solubility (xe) (DMSO mass fraction m = 0.0, T = 303.2 K): 3.37 × 10^−7 mole fraction
Experimental mole fraction solubility (xe) (DMSO mass fraction m = 0.0, T = 308.2 K): 4.85 × 10^−7 mole fraction
Experimental mole fraction solubility (xe) (DMSO mass fraction m = 0.0, T = 313.2 K): 6.55 × 10^−7 mole fraction
Experimental mole fraction solubility (xe) (DMSO mass fraction m = 0.0, T = 318.2 K): 8.53 × 10^−7 mole fraction
Experimental mole fraction solubility (xe) (DMSO mass fraction m = 0.1, T = 298.2 K): 7.46 × 10^−7 mole fraction
Experimental mole fraction solubility (xe) (DMSO mass fraction m = 0.1, T = 303.2 K): 1.12 × 10^−6 mole fraction
Experimental mole fraction solubility (xe) (DMSO mass fraction m = 0.1, T = 308.2 K): 1.52 × 10^−6 mole fraction
Experimental mole fraction solubility (xe) (DMSO mass fraction m = 0.1, T = 313.2 K): 2.01 × 10^−6 mole fraction
Experimental mole fraction solubility (xe) (DMSO mass fraction m = 0.1, T = 318.2 K): 2.55 × 10^−6 mole fraction
Experimental mole fraction solubility (xe) (DMSO mass fraction m = 0.2, T = 298.2 K): 2.48 × 10^−6 mole fraction
Experimental mole fraction solubility (xe) (DMSO mass fraction m = 0.2, T = 303.2 K): 3.48 × 10^−6 mole fraction
Experimental mole fraction solubility (xe) (DMSO mass fraction m = 0.2, T = 308.2 K): 4.69 × 10^−6 mole fraction
Experimental mole fraction solubility (xe) (DMSO mass fraction m = 0.2, T = 313.2 K): 6.00 × 10^−6 mole fraction
Experimental mole fraction solubility (xe) (DMSO mass fraction m = 0.2, T = 318.2 K): 7.57 × 10^−6 mole fraction
Experimental mole fraction solubility (xe) (DMSO mass fraction m = 0.3, T = 298.2 K): 8.00 × 10^−6 mole fraction
Experimental mole fraction solubility (xe) (DMSO mass fraction m = 0.3, T = 303.2 K): 1.11 × 10^−5 mole fraction
Experimental mole fraction solubility (xe) (DMSO mass fraction m = 0.3, T = 308.2 K): 1.46 × 10^−5 mole fraction
Experimental mole fraction solubility (xe) (DMSO mass fraction m = 0.3, T = 313.2 K): 1.83 × 10^−5 mole fraction
Experimental mole fraction solubility (xe) (DMSO mass fraction m = 0.3, T = 318.2 K): 2.25 × 10^−5 mole fraction
Experimental mole fraction solubility (xe) (DMSO mass fraction m = 0.4, T = 298.2 K): 2.66 × 10^−5 mole fraction
Experimental mole fraction solubility (xe) (DMSO mass fraction m = 0.4, T = 303.2 K): 3.48 × 10^−5 mole fraction
Experimental mole fraction solubility (xe) (DMSO mass fraction m = 0.4, T = 308.2 K): 4.42 × 10^−5 mole fraction
Experimental mole fraction solubility (xe) (DMSO mass fraction m = 0.4, T = 313.2 K): 5.49 × 10^−5 mole fraction
Experimental mole fraction solubility (xe) (DMSO mass fraction m = 0.4, T = 318.2 K): 6.59 × 10^−5 mole fraction
Experimental mole fraction solubility (xe) (DMSO mass fraction m = 0.5, T = 298.2 K): 8.61 × 10^−5 mole fraction
Experimental mole fraction solubility (xe) (DMSO mass fraction m = 0.5, T = 303.2 K): 1.12 × 10^−4 mole fraction
Experimental mole fraction solubility (xe) (DMSO mass fraction m = 0.5, T = 308.2 K): 1.38 × 10^−4 mole fraction
Experimental mole fraction solubility (xe) (DMSO mass fraction m = 0.5, T = 313.2 K): 1.69 × 10^−4 mole fraction
Experimental mole fraction solubility (xe) (DMSO mass fraction m = 0.5, T = 318.2 K): 1.98 × 10^−4 mole fraction
Experimental mole fraction solubility (xe) (DMSO mass fraction m = 0.6, T = 303.2 K): 3.47 × 10^−4 mole fraction
Experimental mole fraction solubility (xe) (DMSO mass fraction m = 0.6, T = 308.2 K): 4.21 × 10^−4 mole fraction
Experimental mole fraction solubility (xe) (DMSO mass fraction m = 0.6, T = 313.2 K): 4.95 × 10^−4 mole fraction
Experimental mole fraction solubility (xe) (DMSO mass fraction m = 0.6, T = 318.2 K): 5.79 × 10^−4 mole fraction
Experimental mole fraction solubility (xe) (DMSO mass fraction m = 0.7, T = 298.2 K): 9.33 × 10^−4 mole fraction
Experimental mole fraction solubility (xe) (DMSO mass fraction m = 0.7, T = 303.2 K): 1.12 × 10^−3 mole fraction
Experimental mole fraction solubility (xe) (DMSO mass fraction m = 0.7, T = 308.2 K): 1.31 × 10^−3 mole fraction
Experimental mole fraction solubility (xe) (DMSO mass fraction m = 0.7, T = 313.2 K): 1.53 × 10^−3 mole fraction
Experimental mole fraction solubility (xe) (DMSO mass fraction m = 0.7, T = 318.2 K): 1.72 × 10^−3 mole fraction
Experimental mole fraction solubility (xe) (DMSO mass fraction m = 0.8, T = 298.2 K): 3.09 × 10^−3 mole fraction
Experimental mole fraction solubility (xe) (DMSO mass fraction m = 0.8, T = 303.2 K): 3.53 × 10^−3 mole fraction
Experimental mole fraction solubility (xe) (DMSO mass fraction m = 0.8, T = 308.2 K): 3.99 × 10^−3 mole fraction
Experimental mole fraction solubility (xe) (DMSO mass fraction m = 0.8, T = 313.2 K): 4.55 × 10^−3 mole fraction
Experimental mole fraction solubility (xe) (DMSO mass fraction m = 0.8, T = 318.2 K): 5.04 × 10^−3 mole fraction
Experimental mole fraction solubility (xe) (DMSO mass fraction m = 0.9, T = 298.2 K): 1.07 × 10^−2 mole fraction
Experimental mole fraction solubility (xe) (DMSO mass fraction m = 0.9, T = 303.2 K): 1.15 × 10^−2 mole fraction
Experimental mole fraction solubility (xe) (DMSO mass fraction m = 0.9, T = 308.2 K): 1.26 × 10^−2 mole fraction
Experimental mole fraction solubility (xe) (DMSO mass fraction m = 0.9, T = 313.2 K): 1.38 × 10^−2 mole fraction
Experimental mole fraction solubility (xe) (DMSO mass fraction m = 0.9, T = 318.2 K): 1.52 × 10^−2 mole fraction
Experimental mole fraction solubility (xe) (DMSO mass fraction m = 1.0, T = 298.2 K): 3.29 × 10^−2 mole fraction
Experimental mole fraction solubility (xe) (DMSO mass fraction m = 1.0, T = 303.2 K): 3.50 × 10^−2 mole fraction
Experimental mole fraction solubility (xe) (DMSO mass fraction m = 1.0, T = 308.2 K): 3.78 × 10^−2 mole fraction
Experimental mole fraction solubility (xe) (DMSO mass fraction m = 1.0, T = 313.2 K): 4.02 × 10^−2 mole fraction
Experimental mole fraction solubility (xe) (DMSO mass fraction m = 1.0, T = 318.2 K): 4.38 × 10^−2 mole fraction
Solubility classification in DMSO (neat DMSO, 298.2–318.2 K): freely soluble
Solubility classification in H2O (neat H2O, 298.2–318.2 K): practically insoluble
SMILES: COc1cc2nccc(Oc3ccc(NC(=O)C4(C(=O)Nc5ccc(F)cc5)CC4)cc3)c2cc1OC [CBZM, Cabozantinib malate]
